Test results: US7566531B2, “Selective whole cell quartz crystal microbalance biosensors” (University of Massachusetts, priority 2003, dated 2009)

Experiments:
MCF-7 cells [1] = assay: whole cell QCM biosensor, Δf and ΔR after drug addition; format: cell-based, human; details: for QCM frequency decrease, Phase I / change in QCM resistance, Phase I: hour 0 to hour 6 post drug addition; for QCM frequency decrease, Phase I / change in QCM resistance, Phase I / QCM frequency increase, Phase II: 0.1 μM docetaxel, 10 μM paclitaxel; for QCM frequency increase, Phase II: hour 6 to hour 20 post drug addition
Procedure: (§1) Normal human mammary epithelial cells (HMEC), estrogen receptor-positive human breast cancer cells (MCF-7, a non-metastatic, malignant mammary epithelial cells), and estrogen receptor-negative metastatic human breast cancer cells (MDA-MB-231) were used for this study. These commercially available cells were cultured and harvested as recommended by the supplier, American Type Cell Cultures (ATCC). The cells were then seeded onto the chemically modified conducting surface of separate whole cell QCM biosensors and were allowed to reach the steady state. In general, it takes about 12-14 hours (hours) or less (as quick as within 6 hours) for the cells to reach the steady state on the new selective whole cell QCM biosensors. In contrast, on a QCM biosensor without the selective substrate, it takes about 20-24 hours for the cells to reach steady state. Cell number-dependent characteristic Δf and ΔR shift values of these cells were recorded as described in Marx et al., Biosens. Bioelectron., 16(9-12):773-82, 2001.
(§2) MCF-7 cells, which are resistant to paclitaxel treatment and MDA-MB-231 cells, which are sensitive to paclitaxel treatment were seeded onto two separate whole cell QCM biosensors and allowed to reach steady state as described above.
(§3) Paclitaxel (Sigma Chemical Company) was dissolved in dimethylsulfoxide to make a stock solution. The stock solution was properly diluted in culture media before being added to the cells on the QCM biosensors, so that the final concentration was 10 μM. […] After adding paclitaxel, the Δf and ΔR of the QCMs were monitored and recorded hourly.
(§4) MCF-7 cells and MDA-MB-231 cells were cultured and seeded onto QCM biosensors according to the method described above. The cells were then incubated with 0.1 μM docetaxel (Aventis Pharmaceuticals) and 10 μM paclitaxel. The changes in frequencies and resistances of the QCMs were monitored for 24 hours.

MDA-MB-231 cells [2] = assay: as above; format: cell-based, human; details: for QCM frequency decrease, Phase I / increase in QCM resistance, Phase I: hour 0 to hour 6 post drug addition; for QCM frequency decrease, Phase I / increase in QCM resistance, Phase I / QCM frequency increase, Phase II: 0.1 μM docetaxel, 10 μM paclitaxel; for QCM frequency increase, Phase II: hour 6 to hour 20 post drug addition
Procedure: as §1, §2, §3, §4

MCF-7 cells [3] = assay: conventional proliferation assays and apoptosis assays; format: cell-based, human
Procedure: (§5) To confirm that the changes in the QCM frequency and resistance are associated with changes in cell growth or apoptosis, conventional proliferation assays and apoptosis assays were conducted on MDA-MB-231 cells and MCF-7 cells treated with docetaxel or paclitaxel. […] For example, both drugs reduced the mitotic index of MCF-7 cells and eliminated that of MDA-MB-231.

MDA-MB-231 cells [4] = assay: as above; format: cell-based, human
Procedure: as §5

MCF-7 cells [5] = assay: apoptosis assay (DAPI staining; Apoptotic Index and Mitotic Index); format: cell-based, human; details: 10 μM
MCF-7 cells [6] = assay: as above; format: cell-based, human
Procedure: (§6) Duplicate MCF-7 or MDA-MB-231 cells that were treated with the same dose of paclitaxel were analyzed using an apoptosis assay as described in Warren M. et al., Free Radic Biol Med. 29:537-47, 2000. Briefly, cells were fixed sequentially in 50% and 100% methanol for 5 minutes each. The cells were then stained with 4,6,diamidino-2-phenylindole (DAPI; Sigma) at a final concentration of 0.5 mg/ml at 37° C. for 30 minutes. After being air-dried and mounted with 1:3 PBS-glycerol, chromatin distribution in the cells were visualized by fluorescence. […] Apoptosis was scored as the percentage of apoptotic cells in relation to the total cell number (i.e., Apoptotic Index), corrected for baseline apoptosis. Mitotic cells were also identified and mitosis was scored as the percentage of the mitotic cells in relation to all of the cells (i.e., Mitotic Index).

MDA-MB-231 cells [7] = assay: as above; format: cell-based, human
Procedure: as §6

[8] = tested on: normal capillary endothelial cells; assay: cell removal from QCM by PBS-EGTA; format: cell-based
Procedure: The above-described QCM biosensor was used to study cells and the ECM made by the cells. 50,000 normal capillary endothelial cells were seeded onto the QCM and maintained in DMEM-10% Calf Serum for 3-4 days to synthesize ECM. The cells were then removed by incubating in PBS-0.25 mM EGTA three times for 6 hours according to the method described in Paige et al., Cell Dev. Biol., 27A:151-157, 1991. During this process, the frequency and resistance of the QCM were recorded and plotted.
To corroborate this discovery, immunocytochemistry was carried out to examine actin stress fiber in the cells using standard techniques.

[9] = 10 μM, 8 hours post paclitaxel addition
[10] = 10 μM, 50 hours post paclitaxel addition
[11] = 10 μM, between 8 and 50 hours post addition
[12] = PBS-0.25 mM EGTA, EGTA 1 at hour 112 after cell seeding

## CC(=O)O[C@H]1C(=O)[C@@]2(C)[C@H]([C@H](OC(=O)c3ccccc3)[C@]3(O)C[C@H](OC(=O)[C@H](O)[C@@H](NC(=O)c4ccccc4)c4ccccc4)C(C)=C1C3(C)C)[C@]1(OC(C)=O)CO[C@@H]1C[C@@H]2O [paclitaxel]
MCF-7 cells [1]; 10 μM
  ΔR decrease immediately after adding the drug: 50 Ω
MCF-7 cells [1]; [9]
  ΔR: about 40 Ω
  Δf: −300 Hz
MCF-7 cells [1]; [10]
  ΔR: about 20 Ω
  Δf: −260 Hz
MCF-7 cells [1]; [11]
  magnitude of change of ΔR: 20 Ω
  magnitude of change of Δf: 40 Hz
MCF-7 cells [1]
  QCM frequency decrease, Phase I: −20 Hz
  change in QCM resistance, Phase I: little change
  QCM frequency increase, Phase II: 50 Hz
MDA-MB-231 cells [2]; 10 μM
  ΔR increase immediately after adding the drug: about 70 Ω
MDA-MB-231 cells [2]; [9]
  ΔR: about 80 Ω
  Δf: −250 Hz
MDA-MB-231 cells [2]; [10]
  ΔR: about 40 Ω
  Δf: −110 Hz
MDA-MB-231 cells [2]; [11]
  magnitude of change of ΔR: 40 Ω
  magnitude of change of Δf: 140 Hz
MDA-MB-231 cells [2]
  QCM frequency decrease, Phase I: −20 Hz
  increase in QCM resistance, Phase I: little change
  QCM frequency increase, Phase II: 60 Hz
MCF-7 cells [3]
  apoptosis: induced apoptosis
  cell growth: inhibited cell growth
  mitotic index: reduced
MDA-MB-231 cells [4]
  apoptosis: induced apoptosis
  cell growth: inhibited cell growth
  mitotic index: eliminated
MCF-7 cells [5]
  start of obvious cell shape change and eventually apoptosis, time post paclitaxel addition: 8 h
MCF-7 cells [6]; 3 hours, 10 uM
  Apoptotic Index (AI): <1%
  Mitotic Index (MI): 1%
MCF-7 cells [6]; 6 hours, 0.1 uM
  Apoptotic Index (AI): 1%
  Mitotic Index (MI): 1%
MCF-7 cells [6]; 6 hours, 1.0 uM
  Apoptotic Index (AI): 4.5%
  Mitotic Index (MI): 0%
MCF-7 cells [6]; 6 hours, 10 uM
  Apoptotic Index (AI): 11%
  Mitotic Index (MI): 0%
MCF-7 cells [6]; 12 hours, 10 uM
  Apoptotic Index (AI): 25%
  Mitotic Index (MI): 0%
MCF-7 cells [6]; 24 hours, 10 uM
  Apoptotic Index (AI): 33%
  Mitotic Index (MI): 0%
MDA-MB-231 cells [7]; 10 μM
  start of obvious cell shape change and eventually apoptosis, time post paclitaxel addition: 8 h
MDA-MB-231 cells [7]; 3 hours, 10 uM
  Apoptotic Index (AI): <1%
  Mitotic Index (MI): 0%
MDA-MB-231 cells [7]; 6 hours, 0.1 uM
  Apoptotic Index (AI): 1%
  Mitotic Index (MI): 0%
MDA-MB-231 cells [7]; 6 hours, 1.0 uM
  Apoptotic Index (AI): 8.5%
  Mitotic Index (MI): 0%
MDA-MB-231 cells [7]; 6 hours, 10 uM
  Apoptotic Index (AI): 10%
  Mitotic Index (MI): 0%
MDA-MB-231 cells [7]; 12 hours, 10 uM
  Apoptotic Index (AI): 40%
  Mitotic Index (MI): 0%
MDA-MB-231 cells [7]; 24 hours, 10 uM
  Apoptotic Index (AI): 84%
  Mitotic Index (MI): 0%

## CC(=O)O[C@@]12CO[C@@H]1C[C@H](O)[C@@]1(C)C(=O)[C@H](O)C3=C(C)[C@@H](OC(=O)[C@H](O)[C@@H](NC(=O)OC(C)(C)C)c4ccccc4)C[C@@](O)([C@@H](OC(=O)c4ccccc4)[C@H]21)C3(C)C [docetaxel]
MCF-7 cells [1]
  QCM frequency decrease, Phase I: −50 Hz
  change in QCM resistance, Phase I: little change
  QCM frequency increase, Phase II: 10-20 Hz
MDA-MB-231 cells [2]
  QCM frequency decrease, Phase I: −70 Hz
  increase in QCM resistance, Phase I: 20 Ohm
  QCM frequency increase, Phase II: 98 Hz
MCF-7 cells [3]
  apoptosis: induced apoptosis
  cell growth: inhibited cell growth
  mitotic index: reduced
MDA-MB-231 cells [4]
  apoptosis: induced apoptosis
  cell growth: inhibited cell growth
  mitotic index: eliminated

## O=C(O)CN(CCOCCOCCN(CC(=O)O)CC(=O)O)CC(=O)O [EGTA]
[8]; [12]
  ΔR on initial exposure: large decrease
  Δf on initial exposure: large increase
[8]; PBS-0.25 mM EGTA, first exposure
  time for frequency and resistance to return to stable values: ≤ 2 h
[8]; minute 120 after exposing to EGTA
  cell detachment from the surface: most cells had detached
